{
  "source": "paper PMC12454603",
  "about": "(Archives of Toxicology, 2025)",
  "key": {"[1]": {"assay": "In vivo kinetic study, intravenous 50 mg/kg bw, blood concentrations", "details": "rat, 50 mg/kg bw parent PAH", "method": "Six male Sprague–Dawley rats at the age of 8–9 weeks weighing 286-305g/rat were obtained from Charles River Inc (Beijing, China). The rats were maintained in plastic cages in two groups of three in a temperature-controlled (ranging from 20 °C to 25 °C) and humidity-controlled (ranging from 40–70%) environment on a 12-h light–dark cycle. The animal bedding was corncob and used after autoclaving. The bedding and the cages were changed twice a week. The number of animals was restricted to 3 per dose group and control blood samples were collected before dosing. Feeding and living conditions followed the Chinese Laboratory Animal-Requirement of environment and housing facilities (GB14925-2010). The present rat study was approved by Institutional Animal Care and Use Committee (IACUC-BF202305006).\nAll animals were fasted 8 h before intravenous injection and resumed feed supply 4 h after dosing.\nAfter administration, blood samples (0.1–0.2 ml blood volume) were taken from the medial canthus venous plexus of the animal and anticoagulated with sodium heparin. Prior to orbital venipuncture and blood collection, the animals were anesthetized by CO2 inhalation (70% CO2 + 30% O2). Blood was sampled at 1 min, 0.5, 1, 2, 4, 8, 12, 24, 32, 48, and 72 h post-dosing. After collection, blood samples were frozen and were stored at −20 °C until analysis. All animals were euthanized with 100% CO2 after the experiment.\nAliquots of 100 µL of blood samples were transferred into centrifuge tubes and 700 µL sodium acetate buffer (0.1M, pH 5.0) and 6 µL β-glucuronidase-arylsulfatase were added. The samples were incubated for 1 h at 37 °C and subsequently extracted twice with 800 µL ethyl acetate saturated with water. The samples were shaken for 30 min and centrifuged 5 min at 2000 g (4 °C). The upper organic phase was transferred to a centrifuge tube and evaporated under a gentle stream of nitrogen at 40 ℃ in a water bath. The residues were re-dissolved with 200 µL ascorbic acid:methanol (1:100). […]"}, "[2]": {"test_system": "ES-D3 cells", "assay": "ES-D3 cell cytotoxicity (WST-1 viability) assay of the mEST", "type": "cell-based, mouse", "details": "1-day and 5-day cytotoxicity, ES-D3 cells", "method": "The viability of the ES-D3 cells following 1-day and 5-day exposure to the test compounds was measured with the WST-1 assay. To this end, 100 µL cell suspension was seeded in the inner 60 wells of 96-well plates at a concentration of 2 × 10^5 cells/ml for 1-day exposure and 10^4 cells/ml for 5-day exposure and incubated at 37 °C with 5% CO2 for 24 h. After 24 h, 100 µL exposure medium with 0.25% DMSO and the required concentration of the test compounds, solvent control, and positive control were added to the cells in triplicate. The plates were incubated at 37 °C with 5% CO2 for 1 day or 5 days until measurement. After the exposure period, 20 µL of the cell proliferation reagent WST-1 were added to each well that contained cells and the cells were incubated for 3 h at 37 °C with 5% CO2. The absorbance of each plate was measured at 440 nm and 620 nm with a SpectraMax iD3 (San Jose, USA).\nThe concentration–response data for the test compounds in the mEST were presented in three curves including curves for 1-day cytotoxicity, 5-day cytotoxicity, and 10-day differentiation assays. The obtained curves were fitted using the inhibition equation log (inhibitor) vs response (three parameters) option using GraphPad Prism software 5.0 (California, USA)."}},
  "data": [
    {"smiles": "Cc1ccc2c(c1)cc1ccc3c(O)ccc4ccc2c1c43", "note": "[3-OH-8-MBaP, 3-Hydroxy-8-methyl-benzo[a]pyrene]", "values": [
      {"measurement": "Observed in vivo Cmax relative to the model prediction (lower)", "setting": "[1]", "value": 3.4, "unit": "fold"},
      {"measurement": "Observed in vivo blood concentration compared with that of 3-OHBaP", "setting": "[1]", "value": "comparable"},
      {"measurement": "Cytotoxicity accompanying the inhibition of differentiation", "setting": "[2]", "value": "without accompanying cytotoxicity"}
    ]}
  ]
}
